What all share (assay type): binding
Assay [1] deals with T1, UniProt O00623 (Homo sapiens, UniProt O00623).
T1 construct: 200 μL of lysate containing 5 mg/ml proteome was treated with 2 μL of 100× compound stock; endogenous in cells
The assay is described as follows: Cysteine liganding, probe competition. The text has this:
(§1) The following 96-well sample prep protocol was used for sample preparation.

The target in assay [2] is T2, UniProt O15151 (Homo sapiens, UniProt O15151).
T2 construct: Cells were resuspended in cold PBS on ice and sonicated with a probe sonicator to achieve lysis; endogenous in cells
T2 sequence (O15151 1-490): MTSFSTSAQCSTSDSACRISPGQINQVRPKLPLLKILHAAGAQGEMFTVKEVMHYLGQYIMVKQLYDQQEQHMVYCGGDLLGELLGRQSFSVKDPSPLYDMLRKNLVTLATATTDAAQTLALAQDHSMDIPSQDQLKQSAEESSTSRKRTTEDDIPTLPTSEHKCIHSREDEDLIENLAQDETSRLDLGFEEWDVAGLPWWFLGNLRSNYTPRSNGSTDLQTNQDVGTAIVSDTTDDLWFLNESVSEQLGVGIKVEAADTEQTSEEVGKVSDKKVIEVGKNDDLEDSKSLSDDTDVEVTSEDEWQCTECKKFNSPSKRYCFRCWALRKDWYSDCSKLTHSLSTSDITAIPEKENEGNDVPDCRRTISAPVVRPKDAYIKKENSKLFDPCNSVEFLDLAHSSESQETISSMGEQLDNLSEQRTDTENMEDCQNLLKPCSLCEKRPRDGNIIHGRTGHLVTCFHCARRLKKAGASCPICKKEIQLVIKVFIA
In words: Cysteine liganding, probe competition. As to conditions: for inhibition at 500 µM: read-out: percent inhibition.
Excerpt: as §1

Assay [3] addresses T3, UniProt Q9Y2Z0 (Homo sapiens, UniProt Q9Y2Z0).
T3 construct: 200 μL of lysate containing 5 mg/ml proteome was treated with 2 μL of 100× compound stock; endogenous in cells
The assay is described as follows: Cysteine liganding, probe competition. The following applies: read-out: percent_inhibition.
Excerpt: as §1

Assay [4] has as its target T4, cysteine residue illustrated in Table 1A or Table 2A (Homo sapiens, UniProt Q8NHY2).
T4 construct: Cells were resuspended in cold PBS on ice and sonicated with a probe sonicator to achieve lysis; endogenous in cells
In words: Competitive cysteine profiling of cell lysate with desthiobiotin iodoacetamide probe (96-well sample prep). As to conditions: UniProt Q8NHY2; 100 uM. The essentials:
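Sonicated cell lysate (5 mg/ml proteome) was preincubated with compound 1 h at 25 °C, then labelled with desthiobiotin iodoacetamide probe 1 h at 25 °C. After reduction, alkylation and trypsin digestion, probe-labelled peptides were streptavidin-enriched and eluted for mass-spectrometric analysis.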

For assay [5], the target named is T5, UniProt O94972 (Homo sapiens, UniProt O94972).
T5 construct: 200 μL of lysate containing 5 mg/ml proteome was treated with 2 μL of 100× compound stock; endogenous in cells
T5 sequence (O94972 whole entry, change not shown): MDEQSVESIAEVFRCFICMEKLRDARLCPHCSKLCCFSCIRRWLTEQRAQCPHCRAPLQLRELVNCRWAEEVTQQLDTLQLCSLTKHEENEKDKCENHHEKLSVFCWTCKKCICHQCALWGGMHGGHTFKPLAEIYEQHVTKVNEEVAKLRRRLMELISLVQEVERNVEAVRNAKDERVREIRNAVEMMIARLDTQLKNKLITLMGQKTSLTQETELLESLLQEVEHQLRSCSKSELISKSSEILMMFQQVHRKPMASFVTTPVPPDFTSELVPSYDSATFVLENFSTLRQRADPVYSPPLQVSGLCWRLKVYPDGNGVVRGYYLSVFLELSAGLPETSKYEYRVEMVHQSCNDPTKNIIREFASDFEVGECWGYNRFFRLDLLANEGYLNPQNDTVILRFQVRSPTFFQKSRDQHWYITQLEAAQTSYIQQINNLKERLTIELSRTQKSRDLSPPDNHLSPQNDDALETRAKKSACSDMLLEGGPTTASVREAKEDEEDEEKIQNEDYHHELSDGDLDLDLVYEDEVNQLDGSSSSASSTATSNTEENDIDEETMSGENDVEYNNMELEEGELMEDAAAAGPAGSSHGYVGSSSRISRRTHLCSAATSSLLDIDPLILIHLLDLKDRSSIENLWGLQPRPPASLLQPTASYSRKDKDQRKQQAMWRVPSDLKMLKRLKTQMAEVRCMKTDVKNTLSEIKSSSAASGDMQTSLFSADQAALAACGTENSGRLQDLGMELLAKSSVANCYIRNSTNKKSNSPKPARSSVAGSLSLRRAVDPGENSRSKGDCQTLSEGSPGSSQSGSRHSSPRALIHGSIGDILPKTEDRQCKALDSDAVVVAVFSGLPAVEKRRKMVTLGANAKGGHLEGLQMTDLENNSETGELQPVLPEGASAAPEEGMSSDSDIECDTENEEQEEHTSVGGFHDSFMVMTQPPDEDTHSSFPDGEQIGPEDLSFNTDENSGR
The assay is described as follows: Cysteine liganding, probe competition.
Excerpt: as §1

Assay [6] deals with T6, UniProt Q13233 (Homo sapiens, UniProt Q13233).
T6 construct: Cells were resuspended in cold PBS on ice and sonicated with a probe sonicator to achieve lysis; endogenous in cells
T6 sequence (Q13233 whole entry, change not shown): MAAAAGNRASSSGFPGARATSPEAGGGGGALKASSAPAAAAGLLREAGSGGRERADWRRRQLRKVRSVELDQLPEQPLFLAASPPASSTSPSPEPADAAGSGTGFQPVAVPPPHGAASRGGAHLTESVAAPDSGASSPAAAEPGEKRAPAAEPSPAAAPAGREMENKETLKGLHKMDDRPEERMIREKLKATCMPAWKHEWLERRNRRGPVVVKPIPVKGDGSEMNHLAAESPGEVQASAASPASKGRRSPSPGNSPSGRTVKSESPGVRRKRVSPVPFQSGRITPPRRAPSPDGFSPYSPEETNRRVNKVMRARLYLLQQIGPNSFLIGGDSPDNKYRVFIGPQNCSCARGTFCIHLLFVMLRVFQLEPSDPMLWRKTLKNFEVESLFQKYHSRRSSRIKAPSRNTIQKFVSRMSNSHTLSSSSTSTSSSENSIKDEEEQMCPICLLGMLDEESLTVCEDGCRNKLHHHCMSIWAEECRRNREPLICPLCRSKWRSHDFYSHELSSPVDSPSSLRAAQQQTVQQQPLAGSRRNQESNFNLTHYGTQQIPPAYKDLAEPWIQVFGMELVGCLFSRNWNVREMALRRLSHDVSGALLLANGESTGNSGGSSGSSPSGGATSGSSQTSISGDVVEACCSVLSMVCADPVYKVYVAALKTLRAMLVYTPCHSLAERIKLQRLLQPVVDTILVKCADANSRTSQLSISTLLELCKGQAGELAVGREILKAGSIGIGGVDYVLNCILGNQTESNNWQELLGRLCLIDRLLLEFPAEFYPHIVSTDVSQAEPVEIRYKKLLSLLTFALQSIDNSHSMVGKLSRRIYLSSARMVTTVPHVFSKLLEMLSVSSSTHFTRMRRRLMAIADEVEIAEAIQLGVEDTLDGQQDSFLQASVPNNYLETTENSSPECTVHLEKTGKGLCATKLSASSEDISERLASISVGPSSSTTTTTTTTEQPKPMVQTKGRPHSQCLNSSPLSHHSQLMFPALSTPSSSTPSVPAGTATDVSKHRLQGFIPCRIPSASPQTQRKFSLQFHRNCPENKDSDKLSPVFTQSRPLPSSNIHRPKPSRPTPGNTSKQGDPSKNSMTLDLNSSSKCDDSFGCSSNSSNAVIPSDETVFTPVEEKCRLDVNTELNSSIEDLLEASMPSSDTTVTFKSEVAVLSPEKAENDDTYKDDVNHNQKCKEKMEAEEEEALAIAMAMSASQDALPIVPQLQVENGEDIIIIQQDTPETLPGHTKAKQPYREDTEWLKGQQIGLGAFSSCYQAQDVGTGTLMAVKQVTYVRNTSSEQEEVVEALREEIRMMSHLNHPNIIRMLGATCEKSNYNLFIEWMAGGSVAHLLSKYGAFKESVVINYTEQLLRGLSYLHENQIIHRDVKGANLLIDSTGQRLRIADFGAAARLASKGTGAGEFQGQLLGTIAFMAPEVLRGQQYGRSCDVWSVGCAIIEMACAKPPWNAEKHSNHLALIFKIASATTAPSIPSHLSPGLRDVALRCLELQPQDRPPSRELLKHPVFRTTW
The assay is described as follows: Cysteine liganding, probe competition.
Excerpt: as §1

For assay [7], the target named is T7, UniProt Q496Y0 (Homo sapiens, UniProt Q496Y0).
T7 construct: 200 μL of lysate containing 5 mg/ml proteome was treated with 2 μL of 100× compound stock; endogenous in cells
T7 sequence (Q496Y0 whole entry, change not shown): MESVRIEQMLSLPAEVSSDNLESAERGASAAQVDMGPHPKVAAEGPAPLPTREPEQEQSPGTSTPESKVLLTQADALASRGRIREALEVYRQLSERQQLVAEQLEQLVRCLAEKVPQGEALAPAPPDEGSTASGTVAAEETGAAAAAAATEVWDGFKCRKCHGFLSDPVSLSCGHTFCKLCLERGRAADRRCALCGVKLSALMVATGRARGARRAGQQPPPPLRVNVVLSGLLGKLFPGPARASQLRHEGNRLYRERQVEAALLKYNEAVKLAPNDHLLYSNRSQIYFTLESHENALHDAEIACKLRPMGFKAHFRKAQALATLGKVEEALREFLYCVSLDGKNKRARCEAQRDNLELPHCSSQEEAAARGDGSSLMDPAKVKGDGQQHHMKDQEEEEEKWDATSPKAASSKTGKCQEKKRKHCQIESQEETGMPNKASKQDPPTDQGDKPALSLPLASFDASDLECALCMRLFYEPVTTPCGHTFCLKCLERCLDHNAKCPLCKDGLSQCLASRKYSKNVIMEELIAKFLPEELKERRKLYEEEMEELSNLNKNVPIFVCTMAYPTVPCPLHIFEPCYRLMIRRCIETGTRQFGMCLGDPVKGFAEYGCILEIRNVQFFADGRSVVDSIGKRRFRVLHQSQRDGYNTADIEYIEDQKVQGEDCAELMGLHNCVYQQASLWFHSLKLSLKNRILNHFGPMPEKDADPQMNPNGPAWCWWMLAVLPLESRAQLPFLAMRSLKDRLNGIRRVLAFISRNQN
In words: Cysteine liganding, probe competition.
Excerpt: as §1

The target in assay [8] is T8, UniProt Q969K3 (Homo sapiens, UniProt Q969K3).
T8 construct: 200 μL of lysate containing 5 mg/ml proteome was treated with 2 μL of 100× compound stock; endogenous in cells
The assay is described as follows: Cysteine liganding, probe competition.
Excerpt: as §1

Assay [9] has as its target T9, UniProt Q9HBE1 (Homo sapiens, UniProt Q9HBE1).
T9 construct: Cells were resuspended in cold PBS on ice and sonicated with a probe sonicator to achieve lysis; endogenous in cells
In words: Cysteine liganding, probe competition.
Excerpt: as §1

Setting [10] is: read-out: KB05_100 uM_percent_inhibition.

T9 sequence (Q9HBE1 whole entry, change not shown): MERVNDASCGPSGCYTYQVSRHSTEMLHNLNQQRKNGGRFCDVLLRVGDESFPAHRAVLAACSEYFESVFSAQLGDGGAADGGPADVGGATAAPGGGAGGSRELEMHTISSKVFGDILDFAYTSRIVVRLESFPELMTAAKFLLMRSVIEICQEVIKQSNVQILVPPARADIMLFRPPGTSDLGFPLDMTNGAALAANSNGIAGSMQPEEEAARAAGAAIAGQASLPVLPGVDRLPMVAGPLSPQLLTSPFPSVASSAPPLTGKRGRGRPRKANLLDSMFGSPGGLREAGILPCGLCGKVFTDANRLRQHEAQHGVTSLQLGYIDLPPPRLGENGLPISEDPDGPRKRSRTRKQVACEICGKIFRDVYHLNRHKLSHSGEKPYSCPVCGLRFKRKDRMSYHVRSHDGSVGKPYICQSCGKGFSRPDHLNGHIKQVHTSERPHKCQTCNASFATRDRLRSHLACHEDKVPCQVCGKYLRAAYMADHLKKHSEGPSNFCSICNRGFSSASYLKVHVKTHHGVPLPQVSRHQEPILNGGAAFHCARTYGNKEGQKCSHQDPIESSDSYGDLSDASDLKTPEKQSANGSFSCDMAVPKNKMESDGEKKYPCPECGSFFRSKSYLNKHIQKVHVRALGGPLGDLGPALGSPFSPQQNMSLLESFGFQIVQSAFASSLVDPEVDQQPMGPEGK
T4 sequence (Q8NHY2 whole entry): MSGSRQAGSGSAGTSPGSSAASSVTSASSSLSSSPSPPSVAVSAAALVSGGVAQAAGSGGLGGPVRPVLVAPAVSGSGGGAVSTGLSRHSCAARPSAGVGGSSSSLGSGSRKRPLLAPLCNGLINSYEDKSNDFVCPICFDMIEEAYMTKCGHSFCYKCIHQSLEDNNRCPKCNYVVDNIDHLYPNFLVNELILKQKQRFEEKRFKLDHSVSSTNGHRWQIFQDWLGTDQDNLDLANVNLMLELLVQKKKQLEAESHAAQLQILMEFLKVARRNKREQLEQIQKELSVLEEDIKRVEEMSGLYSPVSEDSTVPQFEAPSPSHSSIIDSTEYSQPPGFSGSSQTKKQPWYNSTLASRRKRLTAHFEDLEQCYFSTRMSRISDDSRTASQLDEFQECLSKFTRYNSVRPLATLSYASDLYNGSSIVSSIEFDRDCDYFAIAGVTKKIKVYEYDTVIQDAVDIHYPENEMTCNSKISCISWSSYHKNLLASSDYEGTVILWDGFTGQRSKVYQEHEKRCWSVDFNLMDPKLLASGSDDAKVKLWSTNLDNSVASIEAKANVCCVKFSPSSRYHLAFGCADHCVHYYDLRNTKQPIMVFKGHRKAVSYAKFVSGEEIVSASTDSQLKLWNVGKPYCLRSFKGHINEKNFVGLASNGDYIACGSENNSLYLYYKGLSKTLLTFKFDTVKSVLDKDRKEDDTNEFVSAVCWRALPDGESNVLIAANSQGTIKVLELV
T3 sequence (Q9Y2Z0 whole entry, change not shown): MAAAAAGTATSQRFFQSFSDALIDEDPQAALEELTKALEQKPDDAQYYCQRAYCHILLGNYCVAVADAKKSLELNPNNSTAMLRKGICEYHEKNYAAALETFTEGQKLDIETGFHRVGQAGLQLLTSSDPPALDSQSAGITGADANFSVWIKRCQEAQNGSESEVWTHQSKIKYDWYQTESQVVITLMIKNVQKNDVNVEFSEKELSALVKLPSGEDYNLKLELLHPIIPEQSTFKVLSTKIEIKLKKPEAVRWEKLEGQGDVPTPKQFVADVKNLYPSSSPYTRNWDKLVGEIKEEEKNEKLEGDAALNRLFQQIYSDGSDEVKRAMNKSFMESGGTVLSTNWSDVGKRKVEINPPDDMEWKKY

For `COc1ccc2c(c1)CCCN2C(=O)CCl` [KB02], the inhibition at 500 µM in assay [1] (read-out: KB02_500 uM_percent_inhibition) worked out at 61%; in assay [2], 29%. Also, the inhibition at 100 µM in assay [3] came out at 20%.

As for `C=CC(=O)N(c1ccccc1)c1ccc(Br)cc1` [KB05], the “KB05_100 uM_percent_inhibition” value in assay [4] is given as 43%. Also, the percent inhibition in assay [2] (500 uM) is 41%; in assay [7] (500 uM) it was 52%. Besides, the inhibition at 500 µM in [2] was found to be 55%; in assay [7] (500 uM, read-out: percent inhibition), 47%. Besides, the inhibition at 100 µM in assay [5] (setting [10]) was 18%; in assay [6] (read-out: percent inhibition), 31%; in assay [7] (100 uM, read-out: percent inhibition) it was 26%; in assay [8] (read-out: percent_inhibition), 8%; in [9] (setting [10]), 45%; in assay [3], 31%.

On to `O=C(CCl)Nc1cc(C(F)(F)F)cc(C(F)(F)F)c1` [KBO3], for which the “KB03_100 uM_percent_inhibition” value is 27% in assay [4], 36% in assay [5] (100 uM) and 72% in assay [9] (100 uM). Moreover, the “KB03_500 uM_percent_inhibition” value in assay [1] (500 uM) came to 51%. The percent inhibition in assay [6] (100 uM) is listed as 19%; in assay [7] (500 uM), 26%. In addition, the percent_inhibition in [8] (100 uM) is on record as 18%.
